The results in this text go back to patent US9012635B2, “Pyridone amides and analogs exhibiting anti-cancer and anti-proliferative activities” (Deciphera Pharmaceuticals, LLC, priority 2013, dated 2015).

Structures can show the parent of a compound that is named as a salt. Where only a bound is given, the exact number is not on record here.

For experiment [1], the target named is KDR kinase (Seq ID No. 3) (Homo sapiens, UniProt P35968, DEL940-989/E990V). As to the kind of experiment: KDR kinase assay (assays K1, K2, K3). Type of experiment: biochemical. Particulars: enzymatic assay; variant K1, K2 or K3 not given. On the procedure:
The activity of KDR kinase was determined by following the production of ADP from the kinase reaction through coupling with the pyruvate kinase/lactate dehydrogenase system (e.g., Schindler et al. Science 2000, 289, pp. 1938-1942). In this assay, the oxidation of NADH (thus the decrease at A340 nm) was continuously monitored spectrophotometrically. The reaction mixture (100 μl) contained KDR (Seq ID No. 3, 1.5 nM to 7.1 nM, nominal concentration), polyE4Y (1 mg/mL), pyruvate kinase (3.5 units), lactate dehydrogenase (5.5 units), phosphoenolpyruvate (1 mM), and NADH (0.28 mM) in 60 mM Tris buffer containing 0.13% octyl-glucoside, 13 mM MgCl2, 6.8 mM DTT, test compound, and 3.5% DMSO at pH 7.5. The reaction was initiated by adding ATP (0.2 mM, final concentration). The absorption at 340 nm was continuously monitored for 3 h at 30° C. on a Polarstar Optima plate reader (BMG) or instrument of similar capacity. The reaction rate was calculated using the 1 h to 2 h time frame. Percent inhibition was obtained by comparison of reaction rate with that of a control (i.e., with no test compound). IC50 values were calculated from a series of percent inhibition values determined at a range of inhibitor concentrations using software routines as implemented in the GraphPad Prism software package.
KDR kinase assay K2 is the same as for assay K1 except that (1) a nominal concentration of 2.1 nM of enzyme was employed (2) the reaction was pre-incubated with test compound at 30° C. for 2 h prior to initiation with ATP and (3) 1.0 mM ATP (final concentration) was used to initiate the reaction.
KDR kinase assay K3 is the same as for assay K1 except that (1) a nominal concentration of 1.1 nM of enzyme was employed, (2) the buffer components per 100 μl reaction mixture were as follows: 75 mM Tris buffer containing 0.066% octyl-glucoside, 17 mM MgCl2, and 1% DMSO at pH 7.5, (3) the final concentration of DTT was 0.66 mM, (4) the reaction was pre-incubated with test compound at 30° C. for 1 h prior to initiation with ATP, and (5) 1.0 mM ATP (final concentration) was used to initiate the reaction.

The next experiment concerns EBC-1 cells. As to the kind of experiment: EBC-1 cell proliferation assay (resazurin). Type of experiment: cell-based. The settings on record: Homo sapiens, 67 h + 5 h resazurin, read-out: EBC1 Proliferation. On the procedure:
EBC-1 cells (catalog #JCRB0820) were obtained from the Japan Health Science Research Resources Bank, Osaka, Japan. Briefly, cells were grown in DMEM supplemented with 10% characterized fetal bovine serum (Invitrogen, Carlsbad, Calif.) at 37° C., 5% CO2, 95% humidity. Cells were allowed to expand until reaching 70-95% confluency at which point they were subcultured or harvested for assay use.
(§1) A serial dilution of test compound was dispensed into a 96-well black clear bottom plate (Corning, Corning, N.Y.). For each cell line, five thousand cells were added per well in 200 μL complete growth medium. Plates were incubated for 67 hours at 37° C., 5% CO2, 95% humidity. At the end of the incubation period 40 μL of a 440 μM solution of resazurin (Sigma, St. Louis, Mo.) in PBS was added to each well and incubated for an additional 5 hours at 37° C., 5% CO2, 95% humidity. Plates were read on a Synergy2 reader (Biotek, Winooski, Vt.) using an excitation of 540 nm and an emission of 600 nm. Data was analyzed using Prism software (GraphPad, San Diego, Calif.) to calculate IC50 values.

The target in experiment [2] is T1, c-MET kinase (Seq. ID No. 2) (Homo sapiens, UniProt P08581).
T1 construct: c-MET (c-MET residues: 956-1390, from Invitrogen, catalogue #PV3143, 6 nM); purchased Invitrogen PV3143
T1 sequence (P08581 with tags, fused parts or gaps): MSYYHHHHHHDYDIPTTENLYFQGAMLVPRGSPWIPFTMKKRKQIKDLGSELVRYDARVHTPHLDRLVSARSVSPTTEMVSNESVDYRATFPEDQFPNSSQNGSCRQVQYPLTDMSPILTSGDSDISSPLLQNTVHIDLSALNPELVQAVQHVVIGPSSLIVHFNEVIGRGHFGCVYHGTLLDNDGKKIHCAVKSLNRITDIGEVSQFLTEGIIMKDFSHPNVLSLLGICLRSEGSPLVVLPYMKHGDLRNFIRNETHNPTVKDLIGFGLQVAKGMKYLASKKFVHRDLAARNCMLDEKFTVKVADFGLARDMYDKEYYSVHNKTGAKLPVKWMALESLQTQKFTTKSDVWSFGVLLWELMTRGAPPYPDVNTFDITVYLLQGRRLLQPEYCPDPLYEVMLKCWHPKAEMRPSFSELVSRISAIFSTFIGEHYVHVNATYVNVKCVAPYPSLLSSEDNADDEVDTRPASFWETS
As to the kind of experiment: c-MET kinase assay (pyruvate kinase/lactate dehydrogenase coupled, A340). Type of experiment: biochemical. Particulars: enzymatic assay, 0.5 h pre-incubation, ATP 100 μM; read-out: cMET. The protocol: Activity of c-MET kinase (Seq. ID No. 2) was determined by following the production of ADP from the kinase reaction through coupling with the pyruvate kinase/lactate dehydrogenase system (e.g., Schindler et al. Science 2000, 289, pp. 1938-1942). In this assay, the oxidation of NADH (thus the decrease at A340 nm) was continuously monitored spectrophotometrically. The reaction mixture (100 μl) contained c-MET (c-MET residues: 956-1390, from Invitrogen, catalogue #PV3143, 6 nM), polyE4Y (1 mg/mL), MgCl2 (10 mM), pyruvate kinase (4 units), lactate dehydrogenase (0.7 units), phosphoenol pyruvate (1 mM), and NADH (0.28 mM) in 90 mM Tris buffer containing 0.25 mM DTT, 0.2% octyl-glucoside and 1% DMSO, pH 7.5. Test compounds were incubated with c-MET (Seq. ID No. 2) and other reaction reagents at 22° C. for 0.5 h before ATP (100 μM) was added to start the reaction. The absorption at 340 nm was monitored continuously for 2 hours at 30° C. on Polarstar Optima plate reader (BMG). The reaction rate was calculated using the 1.0 to 2.0 h time frame. Percent inhibition was obtained by comparison of reaction rate with that of a control (i.e., with no test compound). IC50 values were calculated from a series of percent inhibition values determined at a range of inhibitor concentrations using software routines as implemented in the GraphPad Prism software package.

For another experiment, the system named is MKN-45 cells. Briefly: MKN-45 cell proliferation assay (resazurin). Particulars: Homo sapiens, 67 h + 5 h resazurin. Type of experiment: cell-based. The protocol: MKN-45 cells (catalog #JCRB0254) were obtained from the Japan Health Science Research Resources Bank, Osaka, Japan. Briefly, cells were grown in RPMI 1640 media supplemented with 10% characterized fetal bovine serum (Invitrogen, Carlsbad, Calif.) at 37° C., 5% CO2, 95% humidity. Cells were allowed to expand until reaching 70-95% confluency at which point they were subcultured or harvested for assay use.
as §1, with “Corning, N.Y.). Five thousand cells” for “Corning, N.Y.). For each cell line, five thousand cells”, “well and plates were incubated for” for “well and incubated for”, “additional 5 h at 37°” for “additional 5 hours at 37°”

The target of experiment [3] is T2, c-KIT kinase (Seq. ID No. 1) (Homo sapiens, UniProt P10721).
T2 construct: c-KIT (cKIT residues T544-V976, from ProQinase, 5.4 nM); purchased ProQinase
T2 sequence (P10721 with tags, fused parts or gaps): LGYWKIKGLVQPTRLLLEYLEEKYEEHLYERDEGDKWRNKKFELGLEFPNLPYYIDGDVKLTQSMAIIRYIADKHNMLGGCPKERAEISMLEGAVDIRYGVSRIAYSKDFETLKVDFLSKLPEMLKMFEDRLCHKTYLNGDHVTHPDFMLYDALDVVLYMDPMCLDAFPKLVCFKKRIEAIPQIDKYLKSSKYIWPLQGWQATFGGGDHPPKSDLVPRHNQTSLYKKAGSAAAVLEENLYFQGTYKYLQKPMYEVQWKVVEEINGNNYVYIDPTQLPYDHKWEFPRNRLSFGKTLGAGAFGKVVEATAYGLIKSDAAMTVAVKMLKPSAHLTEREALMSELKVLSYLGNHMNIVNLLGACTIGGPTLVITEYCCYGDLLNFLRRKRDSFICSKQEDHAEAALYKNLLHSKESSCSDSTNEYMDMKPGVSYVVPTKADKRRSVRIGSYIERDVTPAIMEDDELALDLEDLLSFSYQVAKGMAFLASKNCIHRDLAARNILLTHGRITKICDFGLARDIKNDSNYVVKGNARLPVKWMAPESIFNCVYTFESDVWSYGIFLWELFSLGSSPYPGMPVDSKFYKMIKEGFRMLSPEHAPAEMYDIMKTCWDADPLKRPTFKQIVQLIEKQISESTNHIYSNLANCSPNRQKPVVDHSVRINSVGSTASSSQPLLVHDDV
Briefly: c-KIT kinase assay (pyruvate kinase/lactate dehydrogenase coupled, A340). Type of experiment: biochemical. The settings on record: enzymatic assay, ATP 200 μM; read-out: cKIT. The protocol: Activity of c-KIT kinase (Seq. ID No. 1) was determined by following the production of ADP from the kinase reaction through coupling with the pyruvate kinase/lactate dehydrogenase system (e.g., Schindler et al. Science 2000, 289, pp. 1938-1942). In this assay, the oxidation of NADH (thus the decrease at A340 nm) was continuously monitored spectrophotometrically. The reaction mixture (100 μl) contained c-KIT (cKIT residues T544-V976, from ProQinase, 5.4 nM), polyE4Y (1 mg/mL), MgCl2 (10 mM), pyruvate kinase (4 units), lactate dehydrogenase (0.7 units), phosphoenol pyruvate (1 mM), and NADH (0.28 mM) in 90 mM Tris buffer containing 0.2% octyl-glucoside and 1% DMSO, pH 7.5. Test compounds were incubated with c-KIT (Seq. ID No. 1) and other reaction reagents at 22° C. for less than 2 min before ATP (200 μM) was added to start the reaction. The absorption at 340 nm was monitored continuously for 0.5 hours at 30° C. on Polarstar Optima plate reader (BMG). The reaction rate was calculated using the 0 to 0.5 h time frame. Percent inhibition was obtained by comparison of reaction rate with that of a control (i.e., with no test compound). IC50 values were calculated from a series of percent inhibition values determined at a range of inhibitor concentrations using software routines as implemented in the GraphPad Prism software package.

Chain of KDR kinase (Seq ID No. 3) (P35968 with tags, fused parts or gaps DEL940-989/E990V): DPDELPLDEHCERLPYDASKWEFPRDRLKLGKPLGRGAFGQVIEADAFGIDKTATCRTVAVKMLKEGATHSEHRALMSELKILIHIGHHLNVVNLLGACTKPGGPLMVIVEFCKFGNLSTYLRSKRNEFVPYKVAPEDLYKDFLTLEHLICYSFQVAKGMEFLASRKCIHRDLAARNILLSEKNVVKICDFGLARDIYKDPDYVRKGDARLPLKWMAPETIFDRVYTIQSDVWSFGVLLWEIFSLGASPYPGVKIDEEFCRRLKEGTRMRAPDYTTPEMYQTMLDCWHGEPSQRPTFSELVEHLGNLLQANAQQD

Turning to `CNc1ccn(-c2ccc(F)cc2)c(=O)c1C(=O)Nc1cc(F)c(Oc2ccnc(-c3cnn(C)c3)c2)cc1F` [Example 4, N-(2,5-difluoro-4-((2-(1-methyl-1H-pyrazol-4-yl)pyridin-4-yl)oxy)phenyl)-1-(4-fluorophenyl)-4-(methylamino)-2-oxo-1,2-dihydropyridine-3-carboxamide], the IC50 in experiment [1] was above 1000 nM; with EBC-1 cells, 100 to 1000 nM; in experiment [2] it was at most 100 nM; with MKN-45 cells, above 1000 nM; in experiment [3] it was 100 to 1000 nM.
Consider `CCOc1ccn(-c2ccc(F)cc2)c(=O)c1C(=O)Nc1cc(F)c(Oc2ccnc(-c3cnn(C(C)C)c3)c2)cc1F` [Example 6, N-(2,5-difluoro-4-((2-(1-isopropyl-1H-pyrazol-4-yl)pyridin-4-yl)oxy)phenyl)-4-ethoxy-1-(4-fluorophenyl)-2-oxo-1,2-dihydropyridine-3-carboxamide], for which the IC50 in experiment [1] was above 1000 nM; in the experiment with EBC-1 cells, 100 to 1000 nM; in experiment [2], at most 100 nM; in the experiment with MKN-45 cells, 100 to 1000 nM; in experiment [3], above 1000 nM.
As for `CCOc1ccn(-c2ccc(F)cc2)c(=O)c1C(=O)Nc1cc(F)c(Oc2ccnc(-c3cnn(CC)c3)c2)cc1F` [Example 7, 4-ethoxy-N-(4-((2-(1-ethyl-1H-pyrazol-4-yl)pyridin-4-yl)oxy)-2,5-difluorophenyl)-1-(4-fluorophenyl)-2-oxo-1,2-dihydropyridine-3-carboxamide], the IC50 is above 1000 nM in experiment [1]; at most 100 nM in the experiment with EBC-1 cells; at most 100 nM in experiment [2]; at most 100 nM with MKN-45 cells; above 1000 nM in experiment [3].
Regarding `Cn1cc(-c2cc(Oc3cc(F)c(NC(=O)c4c[nH]cc(-c5ccc(F)cc5)c4=O)cc3F)ccn2)cn1` [Example 10, N-(2,5-difluoro-4-((2-(1-methyl-1H-pyrazol-4-yl)pyridin-4-yl)oxy)phenyl)-5-(4-fluorophenyl)-4-oxo-1,4-dihydropyridine-3-carboxamide], the values for the IC50 in experiment [1], in experiment [2] and in experiment [3] were 100 to 1000 nM, at most 100 nM and at most 100 nM, respectively.
On to `Cn1cc(C(=O)Nc2cc(F)c(Oc3ccnc(-c4cnn(C)c4)c3)cc2F)c(=O)c(-c2ccc(F)cc2)c1` [Example 9, N-(2,5-difluoro-4-((2-(1-methyl-1H-pyrazol-4-yl)pyridin-4-yl)oxy)phenyl)-5-(4-fluorophenyl)-1-methyl-4-oxo-1,4-dihydropyridine-3-carboxamide], for which the IC50 is above 1000 nM in experiment [1], at most 100 nM in experiment [2] and at most 100 nM in experiment [3].
Take `CCOc1ccn(-c2ccc(F)cc2)c(=O)c1C(=O)Nc1cc(F)c(Oc2ccnc(-c3cn[nH]c3)c2)cc1F` [Example 8, N-(4-((2-(1H-pyrazol-4-yl)pyridin-4-yl)oxy)-2,5-difluorophenyl)-4-ethoxy-1-(4-fluorophenyl)-2-oxo-1,2-dihydropyridine-3-carboxamide hydrochloride]: the IC50 in experiment [1] is above 1000 nM; in the experiment on EBC-1 cells it was 100 to 1000 nM; in experiment [2] it was at most 100 nM; in the experiment with MKN-45 cells it was 100 to 1000 nM; in experiment [3], above 1000 nM.
